The record followed here is patent publication US20250154127A1, “BICYCLIC HETEROARYL COMPOUNDS AND USES THEREOF” (ETERN BIOPHARMA (SHANGHAI) CO., LTD., priority 2022, published 2025).

Structures are written as SMILES. pIC50: −log10 of the molar value.

Assay [1] has as its target TEAD1(210-426) binding to YAP(50-100) (Homo sapiens, UniProt P28347). The assay is described as follows: TR-FRET Assay for TEAD1(210-426) Binding to YAP(50-100). The following applies: His-TEAD 10 nM, YAP-Biotin peptide 50 nM. As to the method:
Compounds were performed 3 fold serial dilution, 12 data points, added to 384 well white plate. The final DMSO concentration is 1%, duplicate for each concentration. Then His-TEAD protein was added to a final concentration of 10 nM, and allowed to preincubate for 30 minutes at room temperature. Assay buffer was added as background control.
YAP-Biotin peptide was added to a final concentration of 50 nM, mixed well, incubate 10 minutes at room temperature. The YAP(50-100) peptide sequence used here is named SEQ ID NO: 2
The Europium-labeled anti-6×His antibody and APC labeled streptavidin were diluted according to the instructions, this detection solution was mixed 1:1 with reaction solution, incubated 1 hour at room temperature.
TR-FRET measurements were made on an Envision (Perkin Elmer), using an excitation wavelength of 320 nm and emissions read at 620 nm and 665 nm. The ratio of the 665 nm to the 620 nm multiply 10000 provides a normalized TR-FRET signal that represents the extent of binding.
Half inhibition concentration IC50 value was calculated by XLfit software.

The next assay relates to MSTO-211H cells. Kind of assay: Proliferation Assay (CellTiter-Glo Luminescent Cell Viability Assay). The assay is classed as cell-based. The following applies: Homo sapiens, 96 hours treatment. As to the method:
Example 5: Proliferation Assay
The effect of compound on YAP driven cancer cells proliferation was assessed in MSTO-211H (ATCC, CRL-2081TM) or NCI-H2052 (ATCC, CRL-5915TM) cells using CellTiter-Glo Luminescent Cell Viability Assay (Promega, G7570).
Briefly, individual cell lines were seeded in 96-well cell culture plate at the density of 1,500 cells per well and cultured in RPMII1640 (Gibco-A10491-01)+10% FBS (Gibco-10099-141C)+1% Penicillin-Streptomycin (5,000 U/mL, Gibco-15070-063) overnight at 37° C. with 5% CO2 before adding the compounds.
Following incubation, serial dilutions of compounds dissolved in DMSO were added to each well (3-fold dilution with 9 concentration points). The final concentration of DMSO present in this assay is below 0.5% and make duplication for each compound treated well.
Following 96 hours treatment, compound mediated cell growth inhibition was measured using CellTiter-Go Luminescent Cell Viability Assay (Promega, G7570). […] CellTiter-Glo in each assay well, mix and incubate at room temperature for 10 min. Read signal using EnVision® Multilabel Plate Reader (Perkin Elmer).
For data analysis, cell proliferation inhibition was calculated using the following formula:
Inhibition %=(1−(Compound treated well CTG signal/DMSO well CTG signal))*100.
IC50 values were calculated using GraphPad Prism software using a four-parameter fit model.

Chain of TEAD1(210-426) binding to YAP(50-100) (P28347 209-426): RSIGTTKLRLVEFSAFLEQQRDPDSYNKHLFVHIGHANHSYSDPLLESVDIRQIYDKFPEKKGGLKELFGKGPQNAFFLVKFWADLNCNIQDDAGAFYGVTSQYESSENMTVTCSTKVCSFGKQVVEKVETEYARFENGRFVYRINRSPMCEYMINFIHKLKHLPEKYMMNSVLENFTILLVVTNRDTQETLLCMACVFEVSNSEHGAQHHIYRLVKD

Take `CN(CCO)c1nccc(Cn2ccc(-n3nc(-c4ccc(C(F)(F)F)cc4)c4ncccc43)cc2=O)n1` [Compound 47, 1-((2-((2-hydroxyethyl)(methyl)amino)pyrimidin-4-yl)methyl)-4-(3-(4-(trifluoromethyl)phenyl)-1H-pyrazolo[4,3-b]pyridin-1-yl)pyridin-2(1H)-one]: the negative logarithm of the IC50 (pIC50) in assay [1] was not below 7.00; with MSTO-211H cells, not below 6.00.
The matching figures for `CNc1ccnc(Cn2ccc(-n3nc(-c4ccc(C(F)(F)F)cc4)c4ncccc43)cc2=O)n1` [Compound 48, 1-((4-(methylamino)pyrimidin-2-yl)methyl)-4-(3-(4-(trifluoromethyl)phenyl)-1H-pyrazolo[4,3-b]pyridin-1-yl)pyridin-2(1H)-one]: not below 7.00 and not below 6.00.
In the same order, the values of `CNc1ccnc(Cn2ccc(-n3nc(-c4ccc(C(F)(F)F)cc4)c4nccnc43)cc2=O)n1` [Compound 49, 1-((4-(methylamino)pyrimidin-2-yl)methyl)-4-(3-(4-(trifluoromethyl)phenyl)-1H-pyrazolo[3,4-b]pyrazin-1-yl)pyridin-2(1H)-one] are not below 7.00 and not below 6.00.
In the same order, the values of `O=c1cc(-n2nc(-c3ccc(C(F)(F)F)cc3)c3nccnc32)ccn1Cc1ccnc(NCCO)n1` [Compound 50, 1-((2-((2-hydroxyethyl)amino)pyrimidin-4-yl)methyl)-4-(3-(4-(trifluoromethyl)phenyl)-1H-pyrazolo[3,4-b]pyrazin-1-yl)pyridin-2(1H)-one] are not below 7.00 and not below 6.00.
For the compound `CNc1nccc(Cn2ccc(-n3nc(-c4ccc(C(F)(F)F)cc4)c4nccnc43)cc2=O)n1` [Compound 51, 1-((2-(methylamino)pyrimidin-4-yl)methyl)-4-(3-(4-(trifluoromethyl)phenyl)-1H-pyrazolo[3,4-b]pyrazin-1-yl)pyridin-2(1H)-one], the pIC50 in assay [1] was not below 7.00; in the assay on MSTO-211H cells, not below 6.00.
The matching figures for `CN(CCO)c1nccc(Cn2ccc(-n3nc(-c4ccc(C(F)(F)F)cc4)c4nccnc43)cc2=O)n1` [Compound 52, 1-((2-((2-hydroxyethyl)(methyl)amino)pyrimidin-4-yl)methyl)-4-(3-(4-(trifluoromethyl)phenyl)-1H-pyrazolo[3,4-b]pyrazin-1-yl)pyridin-2(1H)-one]: not below 7.00 and not below 6.00.
In the same order, the values of `CNc1ccnc(Cn2ccc(-c3nn(-c4ccc(C(F)(F)F)cc4)c4cc(F)ccc34)cc2=O)n1` [Compound 53, 4-(6-fluoro-1-(4-(trifluoromethyl)phenyl)-1H-indazol-3-yl)-1-((4-(methylamino)pyrimidin-2-yl)methyl)pyridin-2(1H)-one] are not below 7.00 and not below 6.00.
The matching figures for `CNc1ccnc(Cn2ccc(-c3nn(-c4ccc(C(F)(F)F)cc4)c4ccc(F)cc34)cc2=O)n1` [Compound 54, 4-(5-fluoro-1-(4-(trifluoromethyl)phenyl)-1H-indazol-3-yl)-1-((4-(methylamino)pyrimidin-2-yl)methyl)pyridin-2(1H)-one]: not below 7.00 and not below 6.00.
For the compound `O=c1cc(-c2nn(-c3ccc(C(F)(F)F)cc3)c3ccccc23)ccn1Cc1nccc(N2CC[C@H](O)C2)n1` [Compound 55, (S)-1-((4-(3-hydroxypyrrolidin-1-yl)pyrimidin-2-yl)methyl)-4-(1-(4-(trifluoromethyl)phenyl)-1H-indazol-3-yl)pyridin-2(1H)-one], the values for the negative-log IC50 (pIC50) (in assay [1]; with MSTO-211H cells) were not below 7.00 and not below 6.00, respectively.
The matching figures for `O=c1cc(-n2nc(-c3ccc(C(F)(F)F)cc3)c3ncccc32)ccn1Cc1ccnc(OCCO)n1` [Compound 56, 1-((2-(2-hydroxyethoxy)pyrimidin-4-yl)methyl)-4-(3-(4-(trifluoromethyl)phenyl)-1H-pyrazolo[4,3-b]pyridin-1-yl)pyridin-2(1H)-one]: not below 7.00 and not below 6.00.
With `CNc1nccc(Cn2ccc(-c3nn(-c4ccc(C(F)(F)F)cc4C)c4ncccc34)cc2=O)n1` [Compound 57], the pIC50 in assay [1] was not below 7.00; with MSTO-211H cells, not below 6.00.
In the same order, the values of `CNc1nccc(Cn2ccc(-c3nn(-c4ccc(F)cc4)c4ncccc34)cc2=O)n1` [Compound 58, 4-(1-(4-fluorophenyl)-1H-pyrazolo[3,4-b]pyridin-3-yl)-1-((2-(methylamino)pyrimidin-4-yl)methyl) pyridin-2(1H)-one] are not below 7.00 and not below 6.00.
Regarding `CNc1nccc(Cn2ccc(-c3nn(-c4ccc(OC(F)(F)F)cc4)c4ncccc34)cc2=O)n1` [Compound 59, 1-((2-(methylamino)pyrimidin-4-yl)methyl)-4-(1-(4-(trifluoromethoxy)phenyl)-1H-pyrazolo[3,4-b]pyridin-3-yl) pyridin-2(1H)-one], the pIC50 in assay [1] is not below 7.00; with MSTO-211H cells, not below 6.00.
In the same order, the values of `Nc1cccc(Cn2ccc(-c3nn(-c4ccc(C(F)(F)F)cc4)c4ccccc34)cc2=O)n1` [Compound 60, 1-((6-aminopyridin-2-yl)methyl)-4-(1-(4-(trifluoromethyl)phenyl)-1H-indazol-3-yl)pyridin-2(1H)-one] are not below 7.00 and not below 6.00.
In the same order, the values of `Nc1nccc(Cn2ccc(-c3nn(-c4ccc(C(F)(F)F)cc4)c4ccccc34)cc2=O)n1` [Compound 61, 1-((2-aminopyrimidin-4-yl)methyl)-4-(1-(4-(trifluoromethyl)phenyl)-1H-indazol-3-yl)pyridin-2(1H)-one] are not below 7.00 and not below 6.00.
In the same order, the values of `O=c1cc(-c2nn(-c3ccc(C(F)(F)F)cc3)c3ccccc23)ccn1Cc1cccnn1` [Compound 62, 1-(pyridazin-3-ylmethyl)-4-(1-(4-(trifluoromethyl)phenyl)-1H-indazol-3-yl)pyridin-2(1H)-one] are not below 7.00 and not below 6.00.
As for `O=c1cc(-c2nn(-c3ccc(C(F)(F)F)cc3)c3ccccc23)ccn1Cc1cnccn1` [Compound 63, 1-(pyrazin-2-ylmethyl)-4-(1-(4-(trifluoromethyl)phenyl)-1H-indazol-3-yl)pyridin-2(1H)-one], the results for the pIC50 (in assay [1]; in the assay with MSTO-211H cells) were not below 7.00 and not below 6.00, respectively.
In the case of `Cn1ccc(Cn2ccc(-c3cn(-c4ccc(C(F)(F)F)cc4)c4ncccc34)cc2=O)n1` [Compound 64, 1-((1-methyl-1H-pyrazol-3-yl)methyl)-4-(1-(4-(trifluoromethyl)phenyl)-1H-pyrrolo[2,3-b]pyridin-3-yl)pyridin-2(1H)-one], the pIC50 in assay [1] is not below 7.00; in the assay with MSTO-211H cells, not below 6.00.
Take `Nc1cncc(Cn2ccc(-c3nn(-c4ccc(C(F)(F)F)cc4)c4ccccc34)cc2=O)n1` [Compound 65, 1-((6-aminopyrazin-2-yl)methyl)-4-(1-(4-(trifluoromethyl)phenyl)-1H-indazol-3-yl)pyridin-2(1H)-one]: the pIC50 in assay [1] was not below 7.00; with MSTO-211H cells, not below 6.00.
In the same order, the values of `CN(C)c1nccc(Cn2ccc(-c3nn(-c4ccc(C(F)(F)F)cc4)c4ccccc34)cc2=O)n1` [Compound 66, 1-((2-(dimethylamino)pyrimidin-4-yl)methyl)-4-(1-(4-(trifluoromethyl)phenyl)-1H-indazol-3-yl)pyridin-2(1H)-one] are not below 7.00 and not below 6.00.
For the compound `CNc1nccc(Cn2ccc(-c3nn(-c4ccc(C(F)(F)F)cc4)c4ccccc34)cc2=O)c1F` [Compound 67, 1-((3-fluoro-2-(methylamino)pyridin-4-yl)methyl)-4-(1-(4-(trifluoromethyl)phenyl)-1H-indazol-3-yl)pyridin-2(1H)-one], the pIC50 is not below 7.00 in assay [1] and not below 6.00 in the assay with MSTO-211H cells.
The matching figures for `COc1ccnc(Cn2ccc(-c3nn(-c4ccc(C(F)(F)F)cc4)c4ccccc34)cc2=O)n1` [Compound 68, 1-((4-methoxypyrimidin-2-yl)methyl)-4-(1-(4-(trifluoromethyl)phenyl)-1H-indazol-3-yl)pyridin-2(1H)-one]: not below 7.00 and not below 6.00.
The matching figures for `CNc1ccnc(Cn2ccc(-c3nn(-c4ccc(C(F)(F)F)cc4)c4ccccc34)cc2=O)n1` [Compound 69, 1-((4-(methylamino)pyrimidin-2-yl)methyl)-4-(1-(4-(trifluoromethyl)phenyl)-1H-indazol-3-yl)pyridin-2(1H)-one]: not below 7.00 and not below 6.00.
